Activity calls are given as the source filed them.
Assays:
[1] = target: Multidrug resistance protein CDR2 (Candida albicans (strain SC5314 / ATCC MYA-2876) (Yeast), UniProt P78595); assay: inhibition of Nile Red efflux via Candida CDR2 – S. cerevisiae AD1-8u, singleplex, Cherry Pick1 hits, dose response (AID 588604); format: functional
[2] = target: 72 kDa type IV collagenase (Homo sapiens, UniProt P08253); assay: Dose Response validation of uHTS RPN11 inhibitor hits using a MMP-2 Fluorescence assay.; format: functional
[3] = target: Dual specificity tyrosine-phosphorylation-regulated kinase 1A (Rattus norvegicus, UniProt Q63470); format: biochemical, Homo sapiens
[4] = target: Intestinal-type alkaline phosphatase (Homo sapiens, UniProt P09923); assay: inhibition of human intestinal alkaline phosphatase – biochemical, dose response (AID 488876); format: functional
Intestinal-type alkaline phosphatase (Homo sapiens, UniProt P09923), sequence (P09923 whole entry): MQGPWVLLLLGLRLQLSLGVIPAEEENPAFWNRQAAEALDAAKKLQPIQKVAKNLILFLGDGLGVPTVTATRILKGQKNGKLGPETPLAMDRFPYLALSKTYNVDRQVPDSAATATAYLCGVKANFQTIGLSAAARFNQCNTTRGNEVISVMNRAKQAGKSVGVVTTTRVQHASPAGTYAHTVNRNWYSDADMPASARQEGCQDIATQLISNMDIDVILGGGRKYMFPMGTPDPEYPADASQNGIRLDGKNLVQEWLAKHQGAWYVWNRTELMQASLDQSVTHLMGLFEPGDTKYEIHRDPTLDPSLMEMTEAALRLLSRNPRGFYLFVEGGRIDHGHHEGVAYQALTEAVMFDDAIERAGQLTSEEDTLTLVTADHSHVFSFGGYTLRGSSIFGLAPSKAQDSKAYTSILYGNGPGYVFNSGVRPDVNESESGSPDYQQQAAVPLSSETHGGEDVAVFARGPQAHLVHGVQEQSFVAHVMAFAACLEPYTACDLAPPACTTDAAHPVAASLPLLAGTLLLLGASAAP

[5] = target: Induced myeloid leukemia cell differentiation protein Mcl-1 (Homo sapiens, UniProt Q07820); format: functional
Induced myeloid leukemia cell differentiation protein Mcl-1, sequence (Q07820 whole entry): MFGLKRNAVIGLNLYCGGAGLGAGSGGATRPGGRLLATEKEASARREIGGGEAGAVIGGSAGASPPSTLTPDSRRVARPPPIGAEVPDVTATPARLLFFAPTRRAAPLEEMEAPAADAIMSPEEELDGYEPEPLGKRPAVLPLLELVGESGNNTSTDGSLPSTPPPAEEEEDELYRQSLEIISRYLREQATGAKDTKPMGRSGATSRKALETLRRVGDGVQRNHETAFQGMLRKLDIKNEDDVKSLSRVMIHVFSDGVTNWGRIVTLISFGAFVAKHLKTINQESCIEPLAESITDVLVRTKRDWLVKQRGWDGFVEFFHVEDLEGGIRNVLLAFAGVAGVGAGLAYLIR

[6] = target: Intestinal-type alkaline phosphatase (Mus musculus, UniProt P24822); assay: PubChem AID 488785; format: functional
[7] = target: 26S proteasome non-ATPase regulatory subunit 14 (Homo sapiens, UniProt O00487); assay: inhibition of proteasome subunit RPN11 – biochemical, fluorescence polarization, uHTS hits, confirmation (AID 602368); format: functional
26S proteasome non-ATPase regulatory subunit 14, sequence (O00487 whole entry): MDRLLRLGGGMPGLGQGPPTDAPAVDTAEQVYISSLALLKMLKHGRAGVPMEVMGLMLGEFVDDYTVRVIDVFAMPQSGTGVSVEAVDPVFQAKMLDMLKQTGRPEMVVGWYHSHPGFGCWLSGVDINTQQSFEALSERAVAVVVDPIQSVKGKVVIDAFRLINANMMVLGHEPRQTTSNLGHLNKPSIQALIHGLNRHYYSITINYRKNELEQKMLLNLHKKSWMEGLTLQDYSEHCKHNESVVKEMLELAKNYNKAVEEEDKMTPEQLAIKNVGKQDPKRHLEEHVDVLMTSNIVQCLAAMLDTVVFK

Prothrombin = Prothrombin (Bos taurus, UniProt P00735); assay: thrombin protease inhibitors – biochemical, fluorescence polarization, uHTS hits, dose response (AID 602369); format: functional
[8] = target: T1, Rac GTPase-activating protein 1 (Homo sapiens, UniProt Q9H0H5); assay: blockers of MgcRacGAP-driven Rac1 GTP hydrolysis – biochemical, ADP Hunter fluorescence, primary and confirmatory, confirmation (AID 624330); format: functional
T1 sequence (Q9H0H5 whole entry): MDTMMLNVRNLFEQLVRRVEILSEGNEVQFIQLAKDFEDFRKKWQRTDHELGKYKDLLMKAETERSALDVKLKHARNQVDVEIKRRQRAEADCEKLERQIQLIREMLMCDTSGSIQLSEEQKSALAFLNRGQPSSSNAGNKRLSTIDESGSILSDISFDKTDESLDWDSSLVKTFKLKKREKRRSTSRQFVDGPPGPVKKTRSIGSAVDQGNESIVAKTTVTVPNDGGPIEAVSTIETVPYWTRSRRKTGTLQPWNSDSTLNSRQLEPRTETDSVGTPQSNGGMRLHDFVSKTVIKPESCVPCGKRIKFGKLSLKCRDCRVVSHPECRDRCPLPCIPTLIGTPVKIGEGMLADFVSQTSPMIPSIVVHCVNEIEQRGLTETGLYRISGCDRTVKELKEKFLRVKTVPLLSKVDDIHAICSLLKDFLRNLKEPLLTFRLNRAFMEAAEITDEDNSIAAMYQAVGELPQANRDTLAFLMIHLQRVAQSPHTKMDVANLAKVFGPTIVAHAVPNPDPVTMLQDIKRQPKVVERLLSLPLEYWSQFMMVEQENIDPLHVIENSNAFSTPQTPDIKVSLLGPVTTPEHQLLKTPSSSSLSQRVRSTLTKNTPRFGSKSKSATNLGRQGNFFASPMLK

[9] = target: T2, Alkaline phosphatase, tissue-nonspecific isozyme (Homo sapiens, UniProt P05186); assay: TNAP enzyme inhibition by screening hits, dose response, selectivity assay for mouse IAP inhibitor project, biochemical, human TNAP, uHTS hits (AID 488906); format: functional
T2 sequence (P05186 whole entry): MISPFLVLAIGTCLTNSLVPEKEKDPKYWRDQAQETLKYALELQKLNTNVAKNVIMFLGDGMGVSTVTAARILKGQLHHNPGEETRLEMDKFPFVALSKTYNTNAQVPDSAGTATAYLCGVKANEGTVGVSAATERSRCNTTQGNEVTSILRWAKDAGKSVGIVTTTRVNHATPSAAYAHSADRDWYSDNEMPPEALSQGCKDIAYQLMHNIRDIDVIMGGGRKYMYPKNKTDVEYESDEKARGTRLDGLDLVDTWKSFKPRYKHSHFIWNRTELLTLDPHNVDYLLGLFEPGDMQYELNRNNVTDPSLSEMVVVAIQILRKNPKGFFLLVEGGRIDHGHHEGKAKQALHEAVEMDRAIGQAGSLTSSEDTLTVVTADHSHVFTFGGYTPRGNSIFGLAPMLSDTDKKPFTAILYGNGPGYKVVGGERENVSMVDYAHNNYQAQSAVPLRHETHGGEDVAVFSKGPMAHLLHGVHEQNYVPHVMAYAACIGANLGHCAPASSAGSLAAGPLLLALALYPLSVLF

[10] = target: Interleukin-1 receptor-associated kinase 4 (Homo sapiens, UniProt Q9NWZ3); format: functional
Interleukin-1 receptor-associated kinase 4, sequence (Q9NWZ3 whole entry): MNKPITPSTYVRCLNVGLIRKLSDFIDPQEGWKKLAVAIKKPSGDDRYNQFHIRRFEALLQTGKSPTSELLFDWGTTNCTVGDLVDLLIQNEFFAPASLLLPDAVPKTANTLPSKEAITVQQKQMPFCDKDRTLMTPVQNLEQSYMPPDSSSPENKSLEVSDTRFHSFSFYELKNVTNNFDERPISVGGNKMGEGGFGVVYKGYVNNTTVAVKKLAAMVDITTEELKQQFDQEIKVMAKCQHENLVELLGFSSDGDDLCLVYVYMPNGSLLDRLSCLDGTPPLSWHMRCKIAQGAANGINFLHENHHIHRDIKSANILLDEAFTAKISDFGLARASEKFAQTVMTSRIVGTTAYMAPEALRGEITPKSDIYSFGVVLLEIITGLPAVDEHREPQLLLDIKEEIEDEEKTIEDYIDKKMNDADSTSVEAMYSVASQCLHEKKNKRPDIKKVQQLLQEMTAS

[11] = target: Glycogen synthase kinase-3 beta (Homo sapiens, UniProt P49841); format: functional;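 note: value comes from a broad kinome profiling panel, with GSK3B as the panel member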
Glycogen synthase kinase-3 beta, sequence (P49841 whole entry): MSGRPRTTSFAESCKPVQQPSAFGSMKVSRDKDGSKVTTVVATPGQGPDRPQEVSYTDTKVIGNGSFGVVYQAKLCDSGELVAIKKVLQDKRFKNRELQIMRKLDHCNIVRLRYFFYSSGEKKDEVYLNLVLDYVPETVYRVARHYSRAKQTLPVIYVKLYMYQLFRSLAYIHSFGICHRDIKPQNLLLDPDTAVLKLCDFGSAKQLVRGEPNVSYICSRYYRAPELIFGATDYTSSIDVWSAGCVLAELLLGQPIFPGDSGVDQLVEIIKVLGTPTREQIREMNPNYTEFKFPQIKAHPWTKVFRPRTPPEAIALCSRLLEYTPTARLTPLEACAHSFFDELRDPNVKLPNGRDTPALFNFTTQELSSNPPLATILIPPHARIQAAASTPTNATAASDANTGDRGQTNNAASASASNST

[12] = target: Homeodomain-interacting protein kinase 2 (Homo sapiens, UniProt Q9H2X6); format: functional;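 note: measured within a kinome-wide kinase profiling panel, HIPK2 being one panel member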
[13] = target: Dual specificity protein kinase CLK4 (Homo sapiens, UniProt Q9HAZ1); format: functional
Dual specificity protein kinase CLK4, sequence (Q9HAZ1 whole entry): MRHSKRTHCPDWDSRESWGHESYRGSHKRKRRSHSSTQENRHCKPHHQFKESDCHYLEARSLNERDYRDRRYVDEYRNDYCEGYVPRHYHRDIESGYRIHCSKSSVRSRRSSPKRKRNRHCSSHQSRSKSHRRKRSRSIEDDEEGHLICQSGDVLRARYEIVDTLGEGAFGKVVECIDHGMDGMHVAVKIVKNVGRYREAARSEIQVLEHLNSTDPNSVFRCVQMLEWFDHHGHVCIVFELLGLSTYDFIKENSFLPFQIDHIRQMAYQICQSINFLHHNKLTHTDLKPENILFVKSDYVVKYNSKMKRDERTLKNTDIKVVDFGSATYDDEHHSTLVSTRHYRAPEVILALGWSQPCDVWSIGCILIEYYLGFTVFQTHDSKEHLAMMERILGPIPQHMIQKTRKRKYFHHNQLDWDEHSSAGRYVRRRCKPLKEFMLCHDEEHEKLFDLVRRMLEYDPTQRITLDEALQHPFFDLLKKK

[14] = target: Mitogen-activated protein kinase kinase kinase kinase 4 (Homo sapiens, UniProt O95819); format: functional
Mitogen-activated protein kinase kinase kinase kinase 4, sequence (O95819 whole entry): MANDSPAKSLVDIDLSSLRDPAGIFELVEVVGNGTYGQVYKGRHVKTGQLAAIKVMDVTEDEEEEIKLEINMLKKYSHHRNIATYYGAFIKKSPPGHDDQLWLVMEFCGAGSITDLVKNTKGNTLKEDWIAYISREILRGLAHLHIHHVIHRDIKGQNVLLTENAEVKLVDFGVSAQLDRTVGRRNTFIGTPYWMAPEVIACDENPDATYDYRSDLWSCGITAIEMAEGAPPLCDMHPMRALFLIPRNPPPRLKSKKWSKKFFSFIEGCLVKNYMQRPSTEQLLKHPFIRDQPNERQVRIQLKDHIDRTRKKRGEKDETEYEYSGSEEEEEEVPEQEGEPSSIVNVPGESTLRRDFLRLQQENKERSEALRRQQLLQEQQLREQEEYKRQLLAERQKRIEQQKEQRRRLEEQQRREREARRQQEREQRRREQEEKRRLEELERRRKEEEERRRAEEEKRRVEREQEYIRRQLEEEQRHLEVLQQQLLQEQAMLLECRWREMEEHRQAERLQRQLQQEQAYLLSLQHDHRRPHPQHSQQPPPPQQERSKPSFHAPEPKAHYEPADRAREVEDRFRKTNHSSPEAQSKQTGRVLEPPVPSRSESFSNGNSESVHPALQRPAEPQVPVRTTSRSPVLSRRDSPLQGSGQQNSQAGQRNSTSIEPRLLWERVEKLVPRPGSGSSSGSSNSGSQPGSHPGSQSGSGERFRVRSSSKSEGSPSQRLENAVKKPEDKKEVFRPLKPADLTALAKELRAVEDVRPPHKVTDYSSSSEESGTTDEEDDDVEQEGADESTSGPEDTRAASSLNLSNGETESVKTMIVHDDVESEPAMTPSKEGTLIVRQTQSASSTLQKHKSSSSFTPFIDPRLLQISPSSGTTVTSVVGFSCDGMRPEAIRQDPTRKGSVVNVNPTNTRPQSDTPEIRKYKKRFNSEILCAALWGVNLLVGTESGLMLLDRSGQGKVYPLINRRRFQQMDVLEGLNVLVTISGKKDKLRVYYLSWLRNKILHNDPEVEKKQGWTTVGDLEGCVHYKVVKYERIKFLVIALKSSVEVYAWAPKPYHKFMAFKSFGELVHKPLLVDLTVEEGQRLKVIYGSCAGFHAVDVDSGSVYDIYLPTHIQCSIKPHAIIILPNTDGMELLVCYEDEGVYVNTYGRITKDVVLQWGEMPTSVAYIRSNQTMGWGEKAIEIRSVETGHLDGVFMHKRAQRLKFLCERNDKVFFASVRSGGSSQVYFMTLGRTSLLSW

[15] = target: Cell division cycle 7-related protein kinase (Homo sapiens, UniProt O00311); format: functional;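 note: value obtained from a kinome-wide kinase panel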
[16] = target: T3, Protein disulfide-isomerase (Homo sapiens, UniProt P07237); assay: inhibition of PDI-mediated insulin reduction – biochemical, turbidity, absorbance, cherry-picked samples, set 2, dose response (AID 624274); format: functional
T3 sequence (P07237 whole entry): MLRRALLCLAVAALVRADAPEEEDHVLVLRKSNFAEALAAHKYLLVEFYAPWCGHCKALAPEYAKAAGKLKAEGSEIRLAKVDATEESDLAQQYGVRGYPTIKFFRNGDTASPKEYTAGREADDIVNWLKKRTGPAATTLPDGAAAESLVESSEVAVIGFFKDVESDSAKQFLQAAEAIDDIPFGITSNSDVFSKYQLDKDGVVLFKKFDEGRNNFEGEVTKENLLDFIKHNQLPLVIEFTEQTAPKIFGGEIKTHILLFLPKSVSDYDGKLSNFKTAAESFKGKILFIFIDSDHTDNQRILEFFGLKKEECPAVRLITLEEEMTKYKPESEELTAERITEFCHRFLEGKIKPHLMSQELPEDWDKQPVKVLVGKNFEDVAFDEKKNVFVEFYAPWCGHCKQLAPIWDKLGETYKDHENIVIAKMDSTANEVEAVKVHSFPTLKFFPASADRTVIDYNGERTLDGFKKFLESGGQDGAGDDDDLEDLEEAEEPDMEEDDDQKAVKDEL

[17] = target: T3, Protein disulfide-isomerase; assay: inhibition of PDI-driven insulin aggregation – biochemical, turbidity, absorbance, cherry-picked samples, dose response (AID 602350); format: functional
[18] = cAMP pathway inhibition in counterscreen cell line – TR-FRET cAMP detection, counter-screen for MC4R biased antagonist project, dose response (AID 602305); format: functional, cell-based;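 note: U2OS cells stimulated with forskolin near its EC80 as the cAMP inducer; potency is for inhibition of forskolin-stimulated cAMP signaling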
[19] = target: DNA dC->dU-editing enzyme APOBEC-3G (Homo sapiens, UniProt Q9HC16); assay: inhibition of APOBEC3G ssDNA deamination – biochemical, fluorescence, single-stranded DNA substrate, SAR follow-up (AID 602136); format: functional; details: read-out: IC50_Mean
[20] = target: DNA dC->dU-editing enzyme APOBEC-3A (Homo sapiens, UniProt P31941); assay: SAR analysis of small molecule inhibitors of APOBEC3A DNA Deaminase via a fluorescence-based single-stranded DNA deaminase assay.; format: functional; details: read-out: IC50_Mean
Protein RecA = target: T4, Protein RecA (Mycobacterium tuberculosis, UniProt P9WHJ3); assay: Fluorescence Cell-Free Homogeneous Dose Retest to Identify Inhibitors of RecA-Intein Splicing Activity. [Related pubchem assays (depositor defined):AID2097, AID2223, AID489010, AID492950]; format: functional
T4 sequence (P9WHJ3 whole entry): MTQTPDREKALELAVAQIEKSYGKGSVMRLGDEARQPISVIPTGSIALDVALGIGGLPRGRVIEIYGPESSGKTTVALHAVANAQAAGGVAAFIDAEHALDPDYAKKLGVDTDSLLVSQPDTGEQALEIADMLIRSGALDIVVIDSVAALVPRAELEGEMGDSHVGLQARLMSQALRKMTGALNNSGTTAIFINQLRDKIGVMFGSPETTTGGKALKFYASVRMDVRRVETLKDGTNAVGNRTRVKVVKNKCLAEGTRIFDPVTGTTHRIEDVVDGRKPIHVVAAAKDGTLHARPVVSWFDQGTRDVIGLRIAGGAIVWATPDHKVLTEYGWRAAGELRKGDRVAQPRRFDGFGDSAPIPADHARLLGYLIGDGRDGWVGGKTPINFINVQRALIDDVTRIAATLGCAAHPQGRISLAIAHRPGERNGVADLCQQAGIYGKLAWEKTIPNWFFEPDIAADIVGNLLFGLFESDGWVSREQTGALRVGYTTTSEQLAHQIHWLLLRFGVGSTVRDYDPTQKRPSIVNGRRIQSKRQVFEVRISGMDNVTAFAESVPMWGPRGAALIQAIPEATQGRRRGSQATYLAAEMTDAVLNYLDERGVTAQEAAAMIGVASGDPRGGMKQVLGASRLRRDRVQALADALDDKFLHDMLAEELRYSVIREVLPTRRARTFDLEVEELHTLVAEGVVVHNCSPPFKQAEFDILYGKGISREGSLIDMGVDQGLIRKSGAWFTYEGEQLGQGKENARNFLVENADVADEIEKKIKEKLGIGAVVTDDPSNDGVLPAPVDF

[21] = target: T5, Replicative DNA helicase DnaB (Mycobacterium tuberculosis, UniProt P9WMR3); assay: DnaB intein splicing inhibitors, dose response, biochemical, cell-free fluorescence (AID 449749); format: functional
T5 sequence (P9WMR3 whole entry): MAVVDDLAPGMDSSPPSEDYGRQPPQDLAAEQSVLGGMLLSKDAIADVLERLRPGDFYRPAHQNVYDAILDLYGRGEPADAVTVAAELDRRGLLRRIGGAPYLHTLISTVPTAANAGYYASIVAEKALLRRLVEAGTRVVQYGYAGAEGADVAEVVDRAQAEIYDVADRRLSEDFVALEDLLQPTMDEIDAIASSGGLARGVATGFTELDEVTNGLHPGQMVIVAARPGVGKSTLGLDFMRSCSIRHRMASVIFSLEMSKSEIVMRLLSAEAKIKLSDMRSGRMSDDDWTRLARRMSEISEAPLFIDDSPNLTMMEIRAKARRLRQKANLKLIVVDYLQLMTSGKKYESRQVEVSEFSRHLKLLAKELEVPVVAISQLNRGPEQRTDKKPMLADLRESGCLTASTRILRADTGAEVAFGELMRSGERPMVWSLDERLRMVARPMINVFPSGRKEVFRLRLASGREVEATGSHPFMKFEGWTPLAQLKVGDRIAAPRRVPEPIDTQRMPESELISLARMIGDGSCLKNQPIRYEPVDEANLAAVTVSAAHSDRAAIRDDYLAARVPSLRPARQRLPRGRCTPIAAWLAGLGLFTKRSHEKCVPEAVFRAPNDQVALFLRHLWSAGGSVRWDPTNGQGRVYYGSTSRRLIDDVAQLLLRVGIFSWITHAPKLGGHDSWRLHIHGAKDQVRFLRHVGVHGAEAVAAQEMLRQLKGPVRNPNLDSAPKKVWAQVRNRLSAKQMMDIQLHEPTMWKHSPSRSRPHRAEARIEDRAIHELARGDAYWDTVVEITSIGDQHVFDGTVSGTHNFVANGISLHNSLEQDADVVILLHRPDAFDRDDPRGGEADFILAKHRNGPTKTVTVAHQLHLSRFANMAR

Melanocortin receptor 4 = Melanocortin receptor 4 (Homo sapiens, UniProt P32245); assay: inhibitors of MC4R cAMP signaling – cell-based, TR-FRET, biased antagonists, dose response (AID 602298); format: functional;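 note: antagonist potency against agonist-stimulated cAMP production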
Melanocortin receptor 4, sequence (P32245 whole entry): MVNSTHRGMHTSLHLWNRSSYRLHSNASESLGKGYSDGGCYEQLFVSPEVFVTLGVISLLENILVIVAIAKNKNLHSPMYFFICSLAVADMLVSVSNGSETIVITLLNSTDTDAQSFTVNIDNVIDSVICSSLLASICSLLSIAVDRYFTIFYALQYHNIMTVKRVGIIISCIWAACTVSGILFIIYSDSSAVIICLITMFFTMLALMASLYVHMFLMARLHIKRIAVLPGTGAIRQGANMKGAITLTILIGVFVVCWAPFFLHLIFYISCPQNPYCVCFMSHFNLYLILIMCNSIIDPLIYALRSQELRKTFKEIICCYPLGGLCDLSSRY

[22] = target: Melanin-concentrating hormone receptor 1 (Homo sapiens, UniProt Q99705); assay: Late-stage fluorescence-based counterscreen for antagonists of the G-protein coupled receptor 7 (GPR7): cell-based dose response assay to identify antagonists of the melanin-concentrating hormone receptor 1 (MCHR1) Set 5.; format: functional
Melanin-concentrating hormone receptor 1, sequence (Q99705 whole entry): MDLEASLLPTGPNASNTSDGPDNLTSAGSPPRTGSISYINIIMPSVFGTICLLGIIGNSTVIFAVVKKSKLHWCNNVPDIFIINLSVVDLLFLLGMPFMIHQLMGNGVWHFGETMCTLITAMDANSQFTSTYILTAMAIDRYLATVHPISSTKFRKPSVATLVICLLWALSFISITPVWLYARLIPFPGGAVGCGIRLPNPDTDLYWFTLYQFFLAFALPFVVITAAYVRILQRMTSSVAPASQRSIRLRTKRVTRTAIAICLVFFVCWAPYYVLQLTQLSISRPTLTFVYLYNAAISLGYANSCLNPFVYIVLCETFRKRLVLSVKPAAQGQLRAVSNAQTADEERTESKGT

[23] = target: T6, Neuropeptides B/W receptor type 1 (Homo sapiens, UniProt P48145); assay: human NPBW1 receptor blockade, IC50 – cell-based, fluorescence, dose response, set 5, late-stage follow-up (AID 588566); format: functional
T6 sequence (P48145 whole entry): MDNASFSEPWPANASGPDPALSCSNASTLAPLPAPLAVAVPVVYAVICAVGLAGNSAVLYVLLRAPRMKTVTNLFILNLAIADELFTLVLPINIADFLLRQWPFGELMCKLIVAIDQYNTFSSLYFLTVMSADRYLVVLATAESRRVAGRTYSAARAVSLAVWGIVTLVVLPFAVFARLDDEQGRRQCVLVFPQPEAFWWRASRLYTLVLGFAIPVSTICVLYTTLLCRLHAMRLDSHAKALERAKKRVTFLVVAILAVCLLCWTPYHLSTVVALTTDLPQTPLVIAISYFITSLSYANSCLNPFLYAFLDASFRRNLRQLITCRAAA

For `O=C1/C(=C/c2ccc(O)c(O)c2)Oc2cc(O)ccc21` [SULFURETIN], the EC50 [1] was 0.424 µM (active), the IC50 [2] was > 100 µM (inactive) and the AC50 [3] was 2.32 µM (active). The IC50 [4] was 66.3 µM (active), the IC50 [5] was 1.53 µM (active) and the IC50 [6] was 19.7 µM (active). For the same compound, the IC50 [7] was 23.8 µM (active), the IC50 (Prothrombin) was 21.7 µM (active) and the IC50 [8] was 20.6 µM (active). For the same compound, the IC50 [9] was 52.9 µM (active).

With `CN(C)CCCOc1cc(-c2ccncc2)cc2[nH]nc(N)c12` the Ki [10] was 0.158 µM (active), the Ki [11] was 6.31 µM (active) and the Ki [12] was > 3.16 µM (inactive). For the same compound, the Ki [13] was 0.0794 µM (active), the Ki [14] was 0.794 µM (active) and the Ki [15] was 0.0126 µM (active).

For `CC(NCC(O)COCc1ccc(Cl)cc1)c1ccccc1` (stereo unspecified), the AC50 [16] was 0.009 µM (active) and the AC50 [17] was < 0.009 µM (active).

For `CS(=O)(=O)c1nc([N+](=O)[O-])nn1CCCc1ccccc1`, the IC50 [18] was > 64.5 µM (inactive), the IC50 [19] was > 99 µM (inactive) and the IC50 [20] was > 99 µM (inactive). The EC50 (Protein RecA) was 14.5 µM (active), the AC50 [21] was 7.7 µM (active) and the IC50 (Melanocortin receptor 4) was > 64.5 µM (inactive).

For `N#CC(c1ccccc1)c1cnn(Cc2cccc3ccccc23)c(=O)c1Cl` (stereo unspecified), the IC50 [22] was > 20 µM (inactive) and the IC50 [23] was ~0.702 µM (active).

Reference: ChEMBL document CHEMBL1201862, “PubChem BioAssay data set” (2004)
